According to US6121323A, “Bishydroxyureas” (3M Innovative Properties Company, priority 1997, dated 2000):
pIC50: −log10 of the molar value.

Assays:
[1] = tested on: Leukotriene B4 production in whole human blood; assay: In vitro human whole blood Leukotriene B4 inhibition; type: cell-based; details: A23187 stimulated, read-out: IC50 (concentration producing 50% inhibition of LTB4 production)
Protocol: IN VITRO HUMAN WHOLE BLOOD LEUKOTRIENE B4 INHIBITION
The test method described below measures the ability of compounds to inhibit the production of Leukotriene B4 in whole human blood.
Whole human blood is collected by venipuncture into a 60 cc syringe containing 100 units of heparin.
compounds are disolved in dimethyl sulfoxide. Compounds are tested at concentrations of 100, 33, 11, 3.7, 1.2 and 0.41 μM. Each concentration is tested in duplicate.
Aliquots (1 μL) of compound solution are added to 1 mL polyethylene tubes followed by the addition of 500 μL portion of heparinized blood. The tubes are mixed thoroughly then allowed to preincubate at ambient temperature for 15 minutes. A 25 μL portion of 1 mM Calcium Ionophore A23187 in dimethyl sulfoxide/Tris buffer is added to the tubes. The tubes are mixed thoroughly then incubated at 37° C. for 30 minutes.
The tubes are centrifuged at 2000 rpm for 10 minutes. 100 μL portions of plasma are transferred to 1 mL polyethylene tubes containing 400 μL portions of methanol. The tubes are vortexed then frozen at -20° C. overnight.
The tubes are centrifuged for 10 minutes then 100 μL portions of methanol supernatant are transferred to a 96 well microtiter plate. 10 μL portions are transferred from this plate to a 96 well assay plate. Methanol dilutions of LTB4 standard curve are added to the assay plate. 10 μL portions of blank methanol/plasma supernatant are added to each standard curve well. The assay plate is vacuum dried at ambient temperature. The radioimmunoassay buffer is added, the plate is bath-sonicated for 5 minutes then assayed according to the manufacturer's instructions (Advanced Magnetics; Cambridge, Mass.). Inhibition of LTB4 production is calculated as the ratio of the amount of LTB4 formed in the presence (LTB4 +cpd) and absence (LTB4 no cpd) of compound according the equation below. [formula] IC50 values (concentration of compound producing a 50% inhibition of LTB4 production) are calculated by linear regression analysis of percentage inhibition versus log compound concentration plots.

5-lipoxygenase = target: T1, 5-lipoxygenase (Homo sapiens, UniProt P09917); assay: 5-Lipoxygenase inhibition in human leukocytes (LTC4 by radioimmunoassay); type: cell-based; details: A23187 stimulated, LTC4 readout, read-out: IC50 (concentration producing 50% leukotriene biosynthesis inhibition)
T1 construct: endogenous in cells; host or cells: leukocytes from whole human blood (EDTA, dextran sedimentation, hypotonic lysis)
T1 sequence (P09917 1-674): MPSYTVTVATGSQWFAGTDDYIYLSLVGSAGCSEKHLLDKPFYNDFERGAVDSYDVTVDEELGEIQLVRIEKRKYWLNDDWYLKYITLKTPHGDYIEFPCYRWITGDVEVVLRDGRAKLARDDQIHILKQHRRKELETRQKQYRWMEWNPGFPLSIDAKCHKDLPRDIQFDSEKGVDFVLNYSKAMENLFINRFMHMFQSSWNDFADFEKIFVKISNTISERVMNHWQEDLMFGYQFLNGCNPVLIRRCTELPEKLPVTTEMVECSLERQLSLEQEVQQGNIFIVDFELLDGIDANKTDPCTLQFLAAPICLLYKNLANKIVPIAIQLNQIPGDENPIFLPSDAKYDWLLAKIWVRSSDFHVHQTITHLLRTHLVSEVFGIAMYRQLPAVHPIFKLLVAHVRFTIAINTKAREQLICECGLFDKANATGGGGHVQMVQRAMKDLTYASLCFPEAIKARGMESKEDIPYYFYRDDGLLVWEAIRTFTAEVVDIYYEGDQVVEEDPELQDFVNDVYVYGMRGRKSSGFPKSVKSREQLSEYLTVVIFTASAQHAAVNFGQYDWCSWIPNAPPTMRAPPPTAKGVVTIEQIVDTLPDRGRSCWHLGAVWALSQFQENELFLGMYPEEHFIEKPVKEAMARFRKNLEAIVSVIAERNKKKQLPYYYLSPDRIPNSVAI
Protocol: 5-LIPOXYGENASE INHIBITION IN HUMAN LEUKOCYTES
The test method described below measures the ability of compounds of the invention to inhibit 5-lipoxygenase activity in human leukocytes.
Whole human blood is collected by venipuncture into EDTA (1.4 mL of 0.25M per 60 mL of whole blood). The red blood cells are sedimented with a 6% dextran/0.9% sodium chloride solution at a ratio of 25 mL whole blood to 15 mL dextran solution. The blood/dextran combination is mixed by inversion and the red blood cells are allowed to settle out for 45 minutes at ambient temperature. The plasma/dextran supernatant is removed then centrifuged at ambient temperature at 3000 rpm for 10 minutes. The plasma/dextran supernatant is removed and the cells are resuspended in 10 mL of the plasma/dextran solution. The cell suspension is combined with 20 mL of water, mixed for 1.5 minutes then immediately combined with 10 mL of 3.6% sodium chloride, mixed and centrifuged at ambient temperature at 3000 rpm for 10 minutes. The pellet is washed with 40 mL of Tris buffer (5.55 mM dextrose, 15.36 mM Tris base, 136.9 mM sodium chloride with pH 7.3-7.4) then centrifuged at 3000 rpm for 10 minutes. The pellet is then resuspended into Tris buffer containing 1 mM calcium chloride to provide approximately 1.0×10^7 cells/mL.
Compounds are dissolved in dimethyl sulfoxide. Compounds are tested at concentrations of 100, 33, 11, 3.7, 1.2 and 0.41 μM. Each concentration is tested in duplicate.
A 15 μL portion of Tris buffer containing 1 mM calcium chloride is added to each well of a 96 well microtiter plate. A 1 μL portion of drug solution or vehicle (dimethyl sulfoxide) is added to each well followed by the addition of a 75 μL portion of the cell suspension. The plates are gently mixed then allowed to stand at ambient temperature for 10 minutes. A 10 μL portion of 30 μM A23187 Calcium Ionophore (prepared by dissolving the ionophore in DMSO and then diluting 1:80 into the Tris buffer) is added to each well except the wells that contain the blanks. The blank wells measure the level of LTC4 production in the absence of A23187. The plates are gently mixed then incubated at 37° C. for 10 minutes.
Following incubation the plates are centrifuged at 2000 rpm for 1.5 minutes and the supernatant is removed as quickly as possible to stop the reaction. The supernatants are frozen at -20° C. until they are assayed.
The supernatants are assayed for the presence of Leukotriene C4 by radioimmunoassay which is performed according to the manufacturer's instructions (Advanced Magnetics; Cambridge, Mass.). Inhibition of leukotriene biosynthesis is calculated as the ratio of the amount of LTC4 formed in the presence (LTC4 +cpd) and absence (LTC4 no cpd) of compound according to the following equation. [formula] IC50 values (concentrations of compound producing 50% leukotriene biosynthesis inhibition) are calculated by linear regression analysis of percentage inhibition versus log compound concentration plots.

Row | SMILES | pIC50 [1] | pIC50 (5-lipoxygenase)
1 | CN(O)C(=O)Nc1cccc2c(NC(=O)N(C)O)cccc12 [Example 8, 1,1'-(1,5-Naphthalene)bis(3-hydroxy-3-methylurea)] | 6.15 | 5.25
2 | CN(O)C(=O)Nc1ccc(Oc2ccc(NC(=O)N(C)O)cc2)cc1 [Example 6, 4,4'-Oxybis(1-hydroxy-1-methyl-3-phenylurea)] | 6.30 | 6.67
3 | CN(O)C(=O)Nc1cccc(NC(=O)N(C)O)c1 [Example 7, 1,1'-(m-Phenylene)bis(3-hydroxy-3-methylurea)] | 6.26 | 5.23
4 | CCc1cc(Cc2cc(CC)c(NC(=O)N(C)O)c(CC)c2)cc(CC)c1NC(=O)N(C)O [Example 4, 4,4'-Methylenebis(1-hydroxy-1-methyl-3-(2,6-diethylphenyl)urea)] | 5.09 | 5.37
5 | CN(O)C(=O)Nc1ccc(C(c2ccc(NC(=O)N(C)O)cc2)(C(F)(F)F)C(F)(F)F)cc1 [Example 5, 4,4'-(2,2-Hexafluoropropane)bis(1-hydroxy-1-methyl-3-phenylurea)] | 6.15 | 7.62

Further lines, results first:

Row | pIC50 [1] | pIC50 (5-lipoxygenase) | SMILES
6 | 6.46 | 7.00 | COc1cc(-c2ccc(NC(=O)N(C)O)c(OC)c2)ccc1NC(=O)N(C)O [Example 11]
7 | 4.76 | < 5.00 | CN(O)C(=O)N[C@H]1CC[C@H](NC(=O)N(C)O)CC1 [Example 9, trans-1,4-Cyclohexanebis(3-hydroxy-3-methylurea)]
8 | 5.70 | 7.00 | O=C(NCCCCCCNC(=O)N(O)Cc1ccccc1)N(O)Cc1ccccc1 [Example 10, 1,1'-Hexamethylenebis(3-hydroxy-3-benzylurea)]
